Measurements published in US20150057335A1, “NOVEL FUSION GENES IDENTIFIED IN LUNG CANCER” (National Cancer Center, priority 2013, published 2015).

Experiments:
[1] = tested on: HER2:HER3 signaling activated by CD74-NRG1 fusion in EFM-19 cells; experiment: HER2:HER3 signaling activation by CD74-NRG1 (EFM-19 reporter cells, conditioned medium, immunoblotting); type: cell-based, human; settings: EFM-19 cells treated 30 minutes with conditioned medium from H1299 cells expressing CD74-NRG1; FIG. 10A
Protocol: To determine whether cells expressing CD74-NRG1 cDNA secreted NRG1 ligands that activate HER2:HER3 intracellular signaling, EFM-19 breast cancer cells which express both the ERRB2/HER2 and ERBB3/HER3 proteins were used as reporter cells, as previously described (Wilson T. R., et al., Cancer Cell., 2011, 20, 158-72). NCI-H1299 cells transiently transfected with CD74-NRG1-expressing plasmids or empty (control) plasmids were washed twice with PBS and serum-starved overnight by incubation in a serum-free medium. After harvesting of the medium, centrifugation was performed at 4° C. for 5 minutes to remove cell debris. […] Then, whole-cell lysates were subjected to SDS-PAGE and immunoblotting. Cells were lysed in a RIPA buffer supplemented with Complete Protease and PhosSTOP Phosphatase Inhibitor Cocktail (Roche, Mannheim, Germany). Proteins were subjected to SDS-PAGE, followed by immunoblotting onto polyvinylidene difluoride membranes. The membranes were blocked for one hour with TBS supplemented with 0.1% Tween 20 and 1.0% BSA, and then probed with primary antibodies. After washing with TBS supplemented with 0.1% Tween 20, the membranes were incubated with horseradish peroxidase-conjugated anti-mouse or anti-rabbit secondary antibodies, and then visualized with an enhanced chemiluminescence reagent (Perkin Elmer, Waltham, Mass., USA). Signal intensity was calculated using the LAS3000 imaging system (Quansys Biosciences, West Logan, Utah, USA).

EZR-ERBB4 fusion protein = experiment: Constitutive activation of ERBB4 kinase by EZR-ERBB4 fusion and its inhibition (NIH3T3, immunoblotting); type: cell-based, mouse; settings: NIH3T3 cells stably expressing EZR-ERBB4, serum-starved, treated for 2 hours; FIG. 10B
Text: Whole-cell lysates were subjected to immunoblotting.

[2] = biological target: TRIM24-BRAF fusion protein (Homo sapiens, UniProt P15056); settings: NIH3T3 cells stably expressing TRIM24-BRAF, serum-starved, treated for 2 hours; FIG. 10C
TRIM24-BRAF fusion protein, sequence (P15056 with tags, fused parts or gaps): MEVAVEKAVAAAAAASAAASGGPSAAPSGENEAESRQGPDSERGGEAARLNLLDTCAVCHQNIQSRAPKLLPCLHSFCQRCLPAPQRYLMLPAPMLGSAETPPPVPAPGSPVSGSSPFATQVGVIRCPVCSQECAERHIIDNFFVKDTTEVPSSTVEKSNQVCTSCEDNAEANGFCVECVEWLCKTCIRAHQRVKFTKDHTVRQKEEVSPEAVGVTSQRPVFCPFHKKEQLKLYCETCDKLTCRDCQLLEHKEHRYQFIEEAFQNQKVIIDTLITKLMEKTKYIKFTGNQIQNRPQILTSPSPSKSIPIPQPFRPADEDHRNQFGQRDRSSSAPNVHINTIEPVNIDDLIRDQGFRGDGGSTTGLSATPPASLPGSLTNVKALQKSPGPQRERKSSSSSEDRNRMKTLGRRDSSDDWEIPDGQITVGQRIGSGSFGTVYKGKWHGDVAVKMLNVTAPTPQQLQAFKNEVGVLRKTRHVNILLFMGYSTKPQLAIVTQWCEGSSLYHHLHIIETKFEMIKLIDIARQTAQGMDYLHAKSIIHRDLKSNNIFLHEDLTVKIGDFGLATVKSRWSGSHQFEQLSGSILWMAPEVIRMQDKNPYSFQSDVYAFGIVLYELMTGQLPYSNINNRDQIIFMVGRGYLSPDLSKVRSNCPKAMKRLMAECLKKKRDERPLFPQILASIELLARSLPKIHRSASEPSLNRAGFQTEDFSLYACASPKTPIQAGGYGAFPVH
Protocol: NIH3T3 cells stably transduced with plasmids expressing EZR-ERBB4 or TRIM24-BRAF cDNA or with empty plasmids were maintained in a serum-free medium overnight, and then treated with DMSO (Sigma) or the indicated inhibitor (dissolved in DMSO) for 2 hours. Whole-cell lysates were subjected to immunoblotting.
Cells were lysed in a RIPA buffer supplemented with Complete Protease and PhosSTOP Phosphatase Inhibitor Cocktail (Roche, Mannheim, Germany). Proteins were subjected to SDS-PAGE, followed by immunoblotting onto polyvinylidene difluoride membranes. The membranes were blocked for one hour with TBS supplemented with 0.1% Tween 20 and 1.0% BSA, and then probed with primary antibodies. After washing with TBS supplemented with 0.1% Tween 20, the membranes were incubated with horseradish peroxidase-conjugated anti-mouse or anti-rabbit secondary antibodies, and then visualized with an enhanced chemiluminescence reagent (Perkin Elmer, Waltham, Mass., USA). Signal intensity was calculated using the LAS3000 imaging system (Quansys Biosciences, West Logan, Utah, USA).

CS(=O)(=O)CCNCc1ccc(-c2ccc3ncnc(Nc4ccc(OCc5cccc(F)c5)c(Cl)c4)c3c2)o1 [lapatinib]
suppressed: Phosphorylation of ERK [1] | Phosphorylation of HER2 (ERBB2) [1] | Phosphorylation of HER3 (ERBB3) [1] | Phosphorylation of ERBB4 (EZR-ERBB4 fusion protein) | Phosphorylation of ERK (EZR-ERBB4 fusion protein)

N#CC(=C(/N)Sc1ccccc1N)/C(C#N)=C(\N)Sc1ccccc1N [U0126]
suppressed: ERK phosphorylation (activation) [2]
